{"source": "patent US11213506B2", "about": "“Combination therapy for the treatment or prevention of tumours” (QBIOTICS PTY LTD, priority 2017, dated 2022)", "key": {"B16-OVA cells [1]": {"system": "B16-OVA cells", "experiment": "ATP release assay", "assay_type": "cell-based, mouse", "conditions": "both concentrations (500 and 300 μM), within 60 minutes", "description": "A431 (human epidermoid carcinoma), MM649 (human melanoma) and B16-OVA (B16-F10 mouse melanoma cell line stably transfected with chicken ovalbumin) were cultured in RPMI-1640, 10% FCS (complete medium) at 37° C., 5% CO2 in a humidified incubator. BMDCs were cultured in R10 media (RPMI, 10% FCS, 2 mM glutamine, 50 μM beta-mercaptoethanol, Pen/Strep). All cell lines used in this study were confirmed as mycoplasma negative using MycoAlert (Lonza). STR profiling was also performed to confirm the identity of the human cell lines used.\nCell lines were plated at a density of 10,000 cells per well into clear 96-well plates (Corning, #3595; 100 μl of complete media) and the resultant plates incubated overnight as previously detailed. The following day, media was aspirated from each well and 50 μl of fresh medium was inserted. Stock solutions of Compounds 1, 2, 3 and 4 were diluted to 2× final assay concentration (1 mM and 600 μM) and 50 μl of these dilutions added to the required wells. Ethanol only control solutions were also compiled and administered. At the indicated timepoints, 80 μl of media was removed, centrifuged at 1,200 rpm for 4 mins to pellet cell debris and 50 μl assayed for ATP using a bioluminescence based ATP assay kit (FLAA, Sigma-Aldrich). Relative luminescence units were recorded for each sample using a Hybrid Synergy H4 plate reader (BioTek)."}, "A431 cells": {"system": "A431 cells", "experiment": "Intracellular ATP assay (CellTiter-Glo 2.0)", "assay_type": "cell-based, human", "description": "(§1) CellTiter-Glo® 2.0 assay kits (Promega Corporation), a luminescence based assay quantitating the amount of ATP present in cells, were used to determine intracellular ATP levels in cultures of A431 and MM649 exposed to two concentrations (300 μM and 500 μM) of Compound 1. Again, cells were plated at a density of 10,000 cells per well into a clear bottomed black 96-well plates (in 100 μl of complete medium) and incubated at 37° C., 5% CO2 overnight. At the time of assay, media was aspirated from each well and 50 μl of fresh medium was inserted. Stock solutions of Compound 1 were diluted to 2× final assay concentrations (1 mM and 600 μM) and 50 μl of these dilutions added to the required wells. Ethanol only control solutions were also compiled and administered. At the indicated time points, media was gently removed making sure not to disturb the cells and 100 μl of CellTiter-Glo® 2.0 Reagent added. The resultant plate was mixed on an orbital shaker for 2 mins to induce cell lysis after which it was incubated in the dark for 10 mins. Following this, the luminescent signal in each well was determined. Luminescent signals from compound treated wells were normalised to Vehicle treated wells and expressed as % intracellular ATP vs. time."}, "MM649 cells": {"system": "MM649 cells", "experiment": "Intracellular ATP assay (CellTiter-Glo 2.0)", "assay_type": "cell-based, human", "description": "as §1"}, "B16-OVA cells [2]": {"system": "B16-OVA cells", "experiment": "Calreticulin externalization assay (flow cytometry)", "assay_type": "cell-based, mouse", "conditions": "within 60 minutes of treatment", "description": "Calreticulin externalization was determined as previously detailed (Gomez-Cadena et al. 2016). Briefly, cells (A431, MM649, B16-OVA) cultured in complete medium at 37° C., 5% CO2 were detached via trypsinisation, centrifuged at 1,200 rpm and washed ×2 with fresh medium. After an additional round of centrifugation, the resultant cell pellet was resuspended at a concentration of 1×10^6 cells/ml, after which epoxytigliane was added to a final concentration of 500 or 300 μM. Ethanol only controls were also performed. Cell suspensions were incubated at 37° C., 5% CO2 and at the indicated timepoints, 200 μl of sample was removed and incubated with LIVE/DEAD fixable far red stain for 5 mins on ice. Following this, cells were pelleted at 1,200 rpm for 4 mins and washed ×1 with PBS. 500 μl of PBS, 0.25% formaldehyde was then added to each pellet to perform a light fixation without compromising plasma membrane integrity. […]\nSamples were gated by FSC-H v FSC-A first to identify single cells, after which the LIVE/DEAD stain (Ex: 640 nm, Em: 670/14) negative (intact cell) population was analysed for green fluorescence (Ex: 488 nm, Em: 530/30; calreticulin externalization). Mean fluorescence intensity values were subsequently determined and graphed versus time."}}, "data": [{"smiles": "C/C=C(\\C)C(=O)O[C@@H]1[C@@H](C)[C@@]2(O)[C@H]([C@@H]3C(C)(C)[C@]13OC(=O)[C@@H](C)CC)[C@@H]1O[C@]1(CO)[C@@H](O)[C@]1(O)C(=O)C(C)=C[C@H]12", "note": "[Compound 1, 12-tigloyl-13-(2-methylbutanoyl)-6,7-epoxy-4,5,9,12,13,20-hexahydroxy-1-tiglien-3-one]", "values": [{"measurement": "ATP release", "setting": "B16-OVA cells [1]", "result": "significant release of ATP"}, {"measurement": "intracellular ATP", "setting": "A431 cells; 300 μM, after 120 minutes", "result": "approximately 50 % of the pre-treatment level"}, {"measurement": "intracellular ATP levels", "setting": "A431 cells; 500 μM, after 60 minutes", "result": "almost undetectable"}, {"measurement": "intracellular ATP", "setting": "MM649 cells; 300 μM, after 120 minutes", "result": "approximately 50 % of the pre-treatment level"}, {"measurement": "intracellular ATP levels", "setting": "MM649 cells; 500 μM, after 60 minutes", "result": "almost undetectable"}, {"measurement": "calreticulin externalisation (mean fluorescence intensity)", "setting": "B16-OVA cells [2]", "result": "significant increases in mean fluorescence intensity"}]}]}
